Measurements taken from PubChem BioAssay AID2060512 (Molecular Pharmacology Branch, DTP, NCI, 2025).

Test system: 186277-243-T-J2-PDC complex spheroid viability
Test: Anticancer human tumor 186277-243-T-J2-PDC patient-derived colon adenocarcinoma cell line growth inhibition [GQUAD]
Conditions: for IC50: curve of first compound; for viability, T/C: stronger effect = lower value; active = viability on the fitted dose curve at most 10% of control; inactive = the rest
Summary of the method: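 Multi-cell-type spheroids of tumor cells with HUVEC and mesenchymal stem cells, treated with drug combinations. Concentrations descend in half-log steps from near clinical Cmax, or from 10 microM where Cmax is unknown; viability read-out.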

[1] = second compound 0.0316 µM, first compound 0.0316 µM
[2] = second compound 0.0316 µM, first compound 0.1 µM
[3] = second compound 0.0316 µM, first compound 0.316 µM
[4] = second compound 0.0316 µM, first compound 1 µM
[5] = second compound 0.0316 µM, first compound 3.16 µM
[6] = second compound 0.0316 µM, first compound 10 µM
[7] = second compound 0.1 µM, first compound 0.0316 µM
[8] = second compound 0.1 µM, first compound 0.1 µM
[9] = second compound 0.1 µM, first compound 0.316 µM
[10] = second compound 0.1 µM, first compound 1 µM
[11] = second compound 0.1 µM, first compound 3.16 µM
[12] = second compound 0.1 µM, first compound 10 µM
[13] = second compound 0.316 µM, first compound 0.0316 µM
[14] = second compound 0.316 µM, first compound 0.1 µM
[15] = second compound 0.316 µM, first compound 0.316 µM
[16] = second compound 0.316 µM, first compound 1 µM
[17] = second compound 0.316 µM, first compound 3.16 µM
[18] = second compound 0.316 µM, first compound 10 µM
[19] = second compound 1 µM, first compound 0.0316 µM
[20] = second compound 1 µM, first compound 0.1 µM
[21] = second compound 1 µM, first compound 0.316 µM
[22] = second compound 1 µM, first compound 1 µM
[23] = second compound 1 µM, first compound 3.16 µM
[24] = second compound 1 µM, first compound 10 µM
[25] = second compound 3.16 µM, first compound 0.0316 µM
[26] = second compound 3.16 µM, first compound 0.1 µM
[27] = second compound 3.16 µM, first compound 0.316 µM
[28] = second compound 3.16 µM, first compound 1 µM
[29] = second compound 3.16 µM, first compound 3.16 µM
[30] = second compound 3.16 µM, first compound 10 µM
[31] = second compound 10 µM, first compound 0.0316 µM
[32] = second compound 10 µM, first compound 0.1 µM
[33] = second compound 10 µM, first compound 0.316 µM
[34] = second compound 10 µM, first compound 1 µM
[35] = second compound 10 µM, first compound 3.16 µM
[36] = second compound 10 µM, first compound 10 µM
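Note: spheroids exposed to drugs for 7 days.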
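Throughout, for viability, T/C: 100% = DMSO vehicle control viability.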

COc1ccc([C@@H](O)c2cc(-c3ncnc4cc(N5CCOCC5)ccc34)c(F)cc2Cl)nn1 + CN(C)c1ccc(Nc2c3ccc(NC(=O)CCN4CCCC4)cc3nc3cc(NC(=O)CCN4CCCC4)ccc23)cc1
5.03 µM: IC50 (second compound 0.1 µM)
inactive: viability, T/C [1] 102% | viability, T/C [2] 102% | viability, T/C [3] 117% | viability, T/C [4] 75.9% | viability, T/C [5] 59.8% | viability, T/C [6] 26.2% | viability, T/C [7] 112% | viability, T/C [8] 96% | viability, T/C [9] 90.1% | viability, T/C [10] 85.2% | viability, T/C [11] 73.3% | viability, T/C [12] 22.5% | viability, T/C [13] 95% | viability, T/C [14] 92.7% | viability, T/C [15] 104% | viability, T/C [16] 82.3% | viability, T/C [17] 57.8% | viability, T/C [18] 26.3% | viability, T/C [19] 86.5% | viability, T/C [20] 93.2% | viability, T/C [21] 89.2% | viability, T/C [22] 110% | viability, T/C [23] 62.8% | viability, T/C [24] 19.9% | viability, T/C [25] 98.3% | viability, T/C [26] 87.5% | viability, T/C [27] 108% | viability, T/C [28] 96.4% | viability, T/C [29] 61.1% | viability, T/C [30] 20.4% | viability, T/C [31] 91.3% | viability, T/C [32] 88.1% | viability, T/C [33] 111% | viability, T/C [34] 81.1% | viability, T/C [35] 37.9%
4.33 µM: IC50 (second compound 3.16 µM)
active: viability, T/C [36] 7.76%
4.45 µM: IC50 (second compound 1 µM)
2.31 µM: IC50 (second compound 10 µM)
4.1 µM: IC50 (second compound 0.316 µM)
3.94 µM: IC50 (second compound 0.0316 µM)

CC(C)n1c(=O)n(C)c2cnc3cc(F)c(-c4ccc(OCCCN5CCCCC5)nc4)cc3c21 + CN(C)c1ccc(Nc2c3ccc(NC(=O)CCN4CCCC4)cc3nc3cc(NC(=O)CCN4CCCC4)ccc23)cc1
inactive: viability, T/C [1] 94.4% | viability, T/C [2] 108% | viability, T/C [3] 91.8% | viability, T/C [4] 98.1% | viability, T/C [5] 109% | viability, T/C [6] 97.9% | viability, T/C [7] 110% | viability, T/C [8] 105% | viability, T/C [9] 102% | viability, T/C [10] 110% | viability, T/C [11] 114% | viability, T/C [12] 95.3% | viability, T/C [13] 97.9% | viability, T/C [14] 115% | viability, T/C [15] 103% | viability, T/C [16] 98.3% | viability, T/C [17] 122% | viability, T/C [18] 93.7% | viability, T/C [19] 132% | viability, T/C [20] 87% | viability, T/C [21] 97.6% | viability, T/C [22] 100% | viability, T/C [23] 111% | viability, T/C [24] 86.1% | viability, T/C [25] 101% | viability, T/C [26] 84.9% | viability, T/C [27] 97.2% | viability, T/C [28] 118% | viability, T/C [29] 119% | viability, T/C [30] 84.8% | viability, T/C [31] 118% | viability, T/C [32] 96.8% | viability, T/C [33] 112% | viability, T/C [34] 88.8% | viability, T/C [35] 66.4% | viability, T/C [36] 37.8%
6.1 µM: IC50 (second compound 10 µM)
> 10 µM: IC50 (second compound 0.0316 µM) | IC50 (second compound 0.1 µM) | IC50 (second compound 0.316 µM) | IC50 (second compound 1 µM) | IC50 (second compound 3.16 µM)

CCc1c2c(nc3ccc(O)cc13)-c1cc3c(c(=O)n1C2)COC(=O)[C@]3(O)CC + CN(C)c1ccc(Nc2c3ccc(NC(=O)CCN4CCCC4)cc3nc3cc(NC(=O)CCN4CCCC4)ccc23)cc1
0.0059 µM: IC50 (second compound 0.0316 µM)
0.00626 µM: IC50 (second compound 0.1 µM)
active: viability, T/C [27] 8.68% | viability, T/C [33] 9.38%
0.00775 µM: IC50 (second compound 3.16 µM)
0.00631 µM: IC50 (second compound 0.316 µM)
inactive: viability, T/C (second compound 0.0316 µM, first compound 0.000999 µM) 97.1% | viability, T/C (second compound 0.0316 µM, first compound 0.00316 µM) 62.1% | viability, T/C (second compound 0.0316 µM, first compound 0.00999 µM) 40.6% | viability, T/C [1] 23.8% | viability, T/C (second compound 0.0316 µM, first compound 0.0999 µM) 17.1% | viability, T/C [3] 13.1% | viability, T/C (second compound 0.1 µM, first compound 0.000999 µM) 99.8% | viability, T/C (second compound 0.1 µM, first compound 0.00316 µM) 60.1% | viability, T/C (second compound 0.1 µM, first compound 0.00999 µM) 44.3% | viability, T/C [7] 25.8% | viability, T/C (second compound 0.1 µM, first compound 0.0999 µM) 15.8% | viability, T/C [9] 11.6% | viability, T/C (second compound 0.316 µM, first compound 0.000999 µM) 107% | viability, T/C (second compound 0.316 µM, first compound 0.00316 µM) 69% | viability, T/C (second compound 0.316 µM, first compound 0.00999 µM) 36% | viability, T/C [13] 23.7% | viability, T/C (second compound 0.316 µM, first compound 0.0999 µM) 15.7% | viability, T/C [15] 11.1% | viability, T/C (second compound 1 µM, first compound 0.000999 µM) 82.9% | viability, T/C (second compound 1 µM, first compound 0.00316 µM) 59.7% | viability, T/C (second compound 1 µM, first compound 0.00999 µM) 41.6% | viability, T/C [19] 25.4% | viability, T/C (second compound 1 µM, first compound 0.0999 µM) 15.8% | viability, T/C [21] 10.4% | viability, T/C (second compound 3.16 µM, first compound 0.000999 µM) 92.8% | viability, T/C (second compound 3.16 µM, first compound 0.00316 µM) 63.4% | viability, T/C (second compound 3.16 µM, first compound 0.00999 µM) 49.4% | viability, T/C [25] 27.1% | viability, T/C (second compound 3.16 µM, first compound 0.0999 µM) 16.3% | viability, T/C (second compound 10 µM, first compound 0.000999 µM) 83% | viability, T/C (second compound 10 µM, first compound 0.00316 µM) 63.1% | viability, T/C (second compound 10 µM, first compound 0.00999 µM) 45.5% | viability, T/C [31] 31.4% | viability, T/C (second compound 10 µM, first compound 0.0999 µM) 16.4%
0.00578 µM: IC50 (second compound 1 µM)
0.0075 µM: IC50 (second compound 10 µM)

O=C(NO)c1cnc(N2CCN(S(=O)(=O)c3ccc4ccccc4c3)CC2)nc1 + Cc1[nH]c2ccc(F)cc2c1-c1nc2c3cccnc3c3ncccc3c2[nH]1
0.218 µM: IC50 (second compound 10 µM)
0.19 µM: IC50 (second compound 1 µM)
0.187 µM: IC50 (second compound 0.1 µM)
active: viability, T/C [3] 9.84% | viability, T/C [4] 0.27% | viability, T/C [5] 0.17% | viability, T/C [6] 0.17% | viability, T/C [10] 0.25% | viability, T/C [11] 0.14% | viability, T/C [12] 0.12% | viability, T/C [16] 0.3% | viability, T/C [17] 0.12% | viability, T/C [18] 0.11% | viability, T/C [22] 0.34% | viability, T/C [23] 0.11% | viability, T/C [24] 0.13% | viability, T/C [28] 0.38% | viability, T/C [29] 0.14% | viability, T/C [30] 0.16% | viability, T/C [34] 0.52% | viability, T/C [35] 0.2% | viability, T/C [36] 0.22%
0.203 µM: IC50 (second compound 0.316 µM) | IC50 (second compound 3.16 µM)
inactive: viability, T/C [1] 100% | viability, T/C [2] 94% | viability, T/C [7] 117% | viability, T/C [8] 95% | viability, T/C [9] 12.1% | viability, T/C [13] 103% | viability, T/C [14] 115% | viability, T/C [15] 13.1% | viability, T/C [19] 91.5% | viability, T/C [20] 95.1% | viability, T/C [21] 15.3% | viability, T/C [25] 100% | viability, T/C [26] 98.2% | viability, T/C [27] 19.7% | viability, T/C [31] 100% | viability, T/C [32] 98.5% | viability, T/C [33] 26.7%
0.183 µM: IC50 (second compound 0.0316 µM)
